Experimental data taken from patent US7342018B2, “Urokinase inhibitors and uses thereof” (Wilex AG, priority 1998, dated 2008).
“And” between values parts separate entries of the source, which are not always exact repeats. Equal entries are not always repeated.

Tests used:
[1] = target: Tryptase (Homo sapiens, UniProt Q15661); assay: In vitro inhibition of serine proteases: tryptase; type: biochemical
Description: To determine the inhibitory activity, 200 μl of Tris buffer (0.05 mol/l, containing the inhibitor, 0.154 mol/l NaCl, 5% ethanol pH 8.0), 25 μl of substrate (Pefachrome UK or Bz-βAla-Gly-Arg-pNA in H2O; Pentapharm Ltd., Basle, Switzerland) and 50 μl of sc-urokinase (Ribosepharm GmbH, Haan, Germany) were incubated at 25° C. After 3 min the reaction was stopped by adding 25 μl of acetic acid (50%), and the absorption at 405 nm was determined by means of a Microplate Reader (MR 5000, Dynatech, Denkendorf, Germany). Ki values were determined according to Dixon by linear regression using a computer program. The Ki values are the mean values of at least three determinations with a standard deviation of less than 25%.
The inhibition activities of the enzymes used were determined according to the principle described in Example 3.

[2] = target: Glandular kallikrein (Homo sapiens, UniProt P06870); assay: In vitro inhibition of serine proteases: glandular kallikrein; type: biochemical
Sequence of Glandular kallikrein (P06870 25-262): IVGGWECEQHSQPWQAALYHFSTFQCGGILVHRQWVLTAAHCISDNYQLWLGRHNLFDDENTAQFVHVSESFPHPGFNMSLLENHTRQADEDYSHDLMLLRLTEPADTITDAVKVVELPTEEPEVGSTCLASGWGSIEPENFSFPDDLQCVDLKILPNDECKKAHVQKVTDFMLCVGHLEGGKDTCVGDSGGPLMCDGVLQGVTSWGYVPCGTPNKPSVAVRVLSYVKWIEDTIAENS
Description: (§1) Ki values were determined according to Dixon by linear regression using a computer program.

[3] = Biodistribution of the inhibitor in rats (HPLC of tissue extracts); type: in vivo, rat; conditions: for concentration in tracheal lymph nodes: two independent experiments, hydrochloride
Description: The biodistribution of the inhibitor was determined by two independent experiments in tissue extracts of rats which had been treated once a day with 1 mg/kg i.p. of inhibitor i.p. over a period of 5 or 10 days. For the lysis, in each case 100 mg of tissue were mechanically comminuted and mixed with 200 μl of 1% Triton X-100 in physiological NaCl solution. After adding 400 μl of ethanol, the mixture was sonicated for 1 min. The tissue extract was centrifuged at 12,000×g for 15 min. For prepurification, the supernatant was applied to a C18 Silica Reversed Phase column (Sep-Pak® cartridge C18, 1 ml Water, Eschborn, Germany), equilibrated with 1 ml of methanol and 1 ml of water, washed successively with 2×1 ml H2O, 1 ml 10% methanol, 1 ml H2O, 1 ml 5% acetonitrile, 0.04% perchloric acid and 1 ml H2O and eluted with 500 μl of 75% acetonitrile, 0.04% perchloric acid. HPLC analysis was carried out on a reversed phase C18 silica column with a 5-55% strength acetonitrile gradient containing 0.04% perchloric acid.

[4] = target: T1, Plasmin (Homo sapiens, UniProt P00747); assay: In vitro inhibition of serine proteases: plasmin; type: biochemical
T1 construct: uPA mediates the proteolytic cleavage of plasminogen to give plasmin
T1 sequence (P00747 581-810 limits assumed, species assumed): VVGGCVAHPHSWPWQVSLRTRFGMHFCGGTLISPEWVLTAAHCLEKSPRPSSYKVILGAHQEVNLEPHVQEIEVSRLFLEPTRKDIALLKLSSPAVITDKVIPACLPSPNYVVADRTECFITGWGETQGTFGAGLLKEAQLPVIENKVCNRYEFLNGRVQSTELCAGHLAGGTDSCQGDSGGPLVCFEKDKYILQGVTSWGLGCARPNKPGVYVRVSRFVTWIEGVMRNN
T1 sequence (P00747 97-580 partner limits assumed, species assumed): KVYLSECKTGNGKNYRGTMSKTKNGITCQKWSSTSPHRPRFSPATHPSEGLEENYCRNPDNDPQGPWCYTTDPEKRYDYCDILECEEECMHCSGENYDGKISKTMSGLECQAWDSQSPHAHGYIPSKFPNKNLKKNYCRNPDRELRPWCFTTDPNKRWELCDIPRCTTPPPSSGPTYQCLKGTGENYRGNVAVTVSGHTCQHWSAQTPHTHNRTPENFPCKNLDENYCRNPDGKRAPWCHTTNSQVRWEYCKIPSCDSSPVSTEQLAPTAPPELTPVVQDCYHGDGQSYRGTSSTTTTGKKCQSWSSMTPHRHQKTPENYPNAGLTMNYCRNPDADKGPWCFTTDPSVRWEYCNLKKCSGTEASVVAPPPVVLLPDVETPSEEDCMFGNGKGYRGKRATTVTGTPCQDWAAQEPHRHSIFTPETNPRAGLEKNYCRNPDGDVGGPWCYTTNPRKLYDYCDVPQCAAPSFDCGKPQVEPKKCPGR
Description: as §1

[5] = tested on: human breast carcinoma cells (MDA-BA-231); assay: Human breast cancer cells in nude mice; type: in vivo, Balb/c nude mice; conditions: 1.2 mg/kg i.p. twice a week, vs control (FIG. 6)
Description: In order to test the in vivo efficacy of the inhibitor for inhibiting tumor growth of human breast carcinoma cells (MDA-BA-231), 6×10^6 cells were injected subcutaneously into the right flank of Balb/c nude mice (4-6 weeks old). The tumor cells were preincubated with the synthetic uPA inhibitor prior to inoculation. After 24 h, the mice were treated twice a week intraperitoneally with a dose of 1.2 mg/kg body weight as described under A). The tumor size was determined weekly by measuring the two largest diameters.

[6] = target: Factor Xa (Homo sapiens, UniProt P00742); assay: In vitro inhibition of serine proteases: factor Xa; type: biochemical
Sequence of Factor Xa (P00742 235-488 limits assumed): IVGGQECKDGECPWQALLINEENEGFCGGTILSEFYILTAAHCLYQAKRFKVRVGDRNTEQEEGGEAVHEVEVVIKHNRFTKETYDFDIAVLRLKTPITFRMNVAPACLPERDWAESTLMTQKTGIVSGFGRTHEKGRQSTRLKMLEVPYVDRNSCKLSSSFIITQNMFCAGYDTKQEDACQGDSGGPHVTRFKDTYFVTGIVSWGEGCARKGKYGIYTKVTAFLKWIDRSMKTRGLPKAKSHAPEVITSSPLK
Sequence of Factor Xa (P00742 41-179 partner limits assumed): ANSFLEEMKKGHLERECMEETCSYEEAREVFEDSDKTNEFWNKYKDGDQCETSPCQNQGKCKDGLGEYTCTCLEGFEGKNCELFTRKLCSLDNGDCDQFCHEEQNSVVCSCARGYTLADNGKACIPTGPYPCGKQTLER
Description: as §1

[7] = target: T2, Trypsin (Bos taurus, UniProt P00760); assay: In vitro inhibition of serine proteases: trypsin; type: biochemical
T2 construct: gene PRSS1
T2 sequence (P00760 24-246): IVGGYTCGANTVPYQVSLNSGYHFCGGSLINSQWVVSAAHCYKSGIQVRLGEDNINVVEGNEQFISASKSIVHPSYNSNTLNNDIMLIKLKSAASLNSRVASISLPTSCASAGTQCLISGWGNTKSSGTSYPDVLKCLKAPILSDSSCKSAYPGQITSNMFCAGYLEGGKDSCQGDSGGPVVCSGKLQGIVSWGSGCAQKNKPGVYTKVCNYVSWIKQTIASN
Description: as §1

[8] = tested on: BN-472 breast cancer tumor; assay: Breast cancer model in rats (Example 7); type: in vivo; conditions: for average tumor weights at the end of the treatment, reduced to % of vehicle-treated control / mean weights of the axillary lymph nodes, reduced to % of control / number of lung foci, reduced to % of control: 1 mg/kg daily
Description: 10-25 mm^3 of BN-472 breast cancer tumor fragments from rats were transplanted into female brown Norwegian rats from 6 to 7 weeks old, subcutaneously and orthotopically under the subcutaneous fat of the mammary gland (Day 0). The treatment of the animals was started intraperitoneally 24 hours after tumor inoculation. Each group consisted of eight animals. The control group received only the injection solution (100 μl of a 10% ethanol/saline (0.9% NaCl) solution). A dose of 1 mg/kg body weight was intraperitoneally administered on a daily basis to the comparative group of the naphthyl derivative. (B) and to the therapy group of the inventive uPA inhibitor (A). The treatment was carried out over a period of 4 weeks.
The dimensions of the subcutaneous tumors and the weight of the animals were determined weekly. At the end of the treatment the animals were sacrificed and tumor weights, organ weights and the number of metastases in relevant tissues were determined.
The experiments described in sections A and B were repeated with the inhibitor administered in a different way. For this, the inhibitor was administered subcutaneously in the breast carcinoma model (n=9) and intraperitoneally in the pancreatic adenocarcinoma model (n=8) without changing the daily dose. The results of these repeat experiments corresponded to the results already discussed, both in tendency and extent.

[9] = target: Thrombin (Homo sapiens, UniProt P00734); assay: In vitro inhibition of serine proteases: thrombin; type: biochemical
Description: as §1

[10] = concluded from plasma vs tissue concentrations

Sequence of Tryptase (Q15661 31-275): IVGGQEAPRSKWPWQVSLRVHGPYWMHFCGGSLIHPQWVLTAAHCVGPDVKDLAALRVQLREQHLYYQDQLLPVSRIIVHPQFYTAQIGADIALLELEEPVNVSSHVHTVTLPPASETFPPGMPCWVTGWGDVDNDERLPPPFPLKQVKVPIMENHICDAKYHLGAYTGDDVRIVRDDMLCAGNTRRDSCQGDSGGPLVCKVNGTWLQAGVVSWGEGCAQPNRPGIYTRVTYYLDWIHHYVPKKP

## CCOC(=O)N1CCN(C(=O)[C@H](Cc2cccc(C(=N)N)c2)NS(=O)(=O)c2c(C(C)C)cc(C(C)C)cc2C(C)C)CC1.Cl [uPA inhibitor, Nα-2,4,6-Triisopropylphenylsulfonyl-(L)-3-amidinophenylalanine 4-ethoxycarbonylpiperazide hydrochloride]
[1]
  Ki: 6.3 µM
[2]
  Ki: > 1000 µM
[3]; 1 mg/kg i.p. 5 days
  Content Bile: 1.96 µg/mL
  Content Brain: <0.5 µg/g
  Content Fat/kidney: 0.82 µg/g
  Content Heart: <0.5 µg/g
  Content Kidney: 2.67 µg/g
  Content Liver: 2.85 µg/g
  Content Lung: 3.70 µg/g
  Content Lymph nodes/trachea: 7.45 µg/g
  Content Muscle: 0.74 µg/g
  Content Plasma: 0.008 µg/mL
  Content Spleen: 2.02 µg/g
  Content lymph nodes/axillary: 1.97 µg/g
  Content lymph nodes/knee: 7.83 µg/g
[3]; 1 mg/kg i.p. 10 days
  Content Bile: 1.75 µg/mL
  Content Brain: <0.5 µg/g
  Content Fat/kidney: 1.0 µg/g
  Content Heart: 1.09 µg/g
  Content Kidney: 2.48 µg/g
  Content Liver: 2.08 µg/g
  Content Lung: 1.81 µg/g
  Content Lymph nodes/trachea: 16.38 µg/g
  Content Muscle: <0.5 µg/g
  Content Plasma: 0.035 µg/mL
  Content Spleen: 2.48 µg/g
  Content lymph nodes/axillary: 2.74 µg/g
  Content lymph nodes/knee: 3.8 µg/g
[3]; 24 h after the last i.p. administration
  plasma concentrations relative to the mean tissue concentrations: one to two orders of magnitude below
[3]; after 5 days of administration
  concentration in tracheal lymph nodes: 5.3 µg/g and 7.5 µg/g
[3]; after 10 days of administration
  concentration in tracheal lymph nodes: 21.6 µg/g and 16.4 µg/g
[3]; [10]
  plasma protein binding: low plasma protein binding
  tissue affinity: high tissue affinity
[3]; rat, in vivo
  accumulation in lymph nodes: noticeable accumulation
[4]
  Ki: 0.39 µM
[5]
  tumor volume increase: significantly more slowly
[6]
  Ki: 1.7 µM
[7]
  Ki: 0.037 µM
[8]; 1 mg/kg i.p. daily, 4 weeks, compared to control animals
  weights of lung, liver, kidney and spleen: unchanged
[8]; 1 mg/kg i.p. daily, 4 weeks, p=0.003 vs naphthyl derivative (B) and control
  weight of the primary tumor: significant reduction
[8]; 1 mg/kg i.p. daily, 4 weeks, p=0.005 vs naphthyl derivative (B) and control
  weight of the axillary lymph nodes: significant reduction
[8]; breast and pancreatic tumor models in rats, inhibitor-treated vs vehicle-treated groups
  toxicity (body weight increase, organ weights): no indications of any considerable toxicity
[8]; i.p.
  average tumor weights at the end of the treatment, reduced to % of vehicle-treated control: 23%
  mean weights of the axillary lymph nodes, reduced to % of control: 27%
  number of lung foci, reduced to % of control: 9%
[8]; rat breast cancer model, vs vehicle-treated controls
  number of metastatic lung foci: substantially reduced
[8]; rat pancreatic and breast cancer models, vs vehicle-treated controls
  sizes of subcutaneous tumors: reduced
[8]; s.c.
  average tumor weights at the end of the treatment, reduced to % of vehicle-treated control: 37%
  mean weights of the axillary lymph nodes, reduced to % of control: 48%
  number of lung foci, reduced to % of control: 32%
[9]
  Ki: 0.49 µM
